Test results published in patent US6867207B2, “IL-5 inhibiting 6-azauracil derivatives” (Janssen Pharmaceutica N.V., priority 1997, dated 2005).
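Further: values marked with an asterisk were tested at 10 µM and unmarked values at 1 µM.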

Each molecule was assayed on IL-5 production (assay: In vitro inhibition of IL-5 production in human blood (phytohemagglutinin-stimulated whole blood, ELISA)). Conditions: test dose 1×10^−6 M, 48 hours.
Format: cell-based
Method: In Vitro Inhibition of IL-5 Production in Human Blood
Human Whole Blood Stimulation
Peripheral blood from healthy male donors was drawn into heparinized syringes (12.5 U heparin/ml). Blood samples were three-fold diluted in RMPI 1640 medium (Life Technologies, Belgium) supplemented with 2 mM L-glutamine, 100 U/ml penicillin and 100 μg/ml streptomycin, and 300 μl fractions were distributed in 24-well multidisc plates. Blood samples were preincubated (60 minutes at 37° C.) in a humidified 6% CO2-atmosphere with 100 μl of drug solvent (final concentration 0.02% dimethylsulfoxide in RPMI 1640) or with 100 μl of an appropriate dose of test compound before being stimulated by the addition of 100 μl of phytohemagglutinin HA17 (Murex, UK) at a final concentration of 2 μg/ml. After 48 hours, cell-free supernatant fluids were collected by centrifugation and stored at −70° C. until tested for the presence of IL-5.
IL-5 measurements were conducted as described in Van Wauwe et al. (1996, Inflamm Res, 45, 357-363) on page 358 using ELISA.
Table 9 lists the percentage inhibition of IL-5 production (column “% inh”) at a test dose of 1×10^−6 M, or in case the percentage inhibition is marked with an “*” 1×10^−5 M, the compounds of the present invention.
For `Cc1sc(C(C)(c2ccc(Cl)c(Cl)c2)c2c(Cl)cc(-n3ncc(=O)[nH]c3=O)cc2Cl)nc1-c1ccccc1` (racemic) [Comp 233], the “% inh. (percentage inhibition of IL-5 production)” value was 84%.
For `COCc1cc(O)nc(SC(c2ccc(Cl)cc2)c2ccc(-n3ncc(=O)[nH]c3=O)cc2Cl)n1` (racemic) [Compound 82], the “% inh. (percentage inhibition of IL-5 production)” value was 19%.
In the case of `O=c1cnn(-c2cc(Cl)c(C(c3ccc(Cl)cc3)c3csc(-c4cccc(Cl)c4)n3)c(Cl)c2)c(=O)[nH]1` (racemic) [Compound 371], the “% inh. (percentage inhibition of IL-5 production)” value is reported as 88%.
In the case of `CS(=O)(=O)c1cccc(-c2nnc(C(c3ccc(Cl)cc3)c3c(Cl)cc(-n4ncc(=O)[nH]c4=O)cc3Cl)o2)c1` (racemic) [Compound 205], the “% inh. (percentage inhibition of IL-5 production)” value is reported as 80%.
`Cc1cc(C(C)(c2ccc(Cl)c(C(F)(F)F)c2)c2nc(-c3ccccc3)c(C)s2)c(Cl)cc1-n1ncc(=O)[nH]c1=O` (racemic) [Comp 238] was tested, and the “% inh. (percentage inhibition of IL-5 production)” value was 74%.
In the case of `CCCc1nnc(C(c2ccc(Cl)cc2)c2c(Cl)cc(-n3ncc(=O)[nH]c3=O)cc2Cl)o1` (racemic) [Compound 164], the “% inh. (percentage inhibition of IL-5 production)” value is reported as 84%.
With `O=c1cnn(-c2ccc(C(Sc3nc[nH]n3)c3ccc(Cl)cc3)c(Cl)c2)c(=O)[nH]1` (racemic) [Compound 55] the “% inh. (percentage inhibition of IL-5 production)” value was 26%.
For `O=c1cnn(-c2cc(Cl)c(C(c3ccc(Cl)cc3)c3nnc(-c4ccccc4)o3)c(Cl)c2)c(=O)[nH]1` (stereo not shown) [Compound 190, (B)-2-[3,5-dichloro-4-[(4-chlorophenyl)(5-phenyl-1,3,4-oxadizol-2-yl)methyl]phenyl]-1,2,4-triazine-3,5(2H,4H)-dione], the “% inh. (percentage inhibition of IL-5 production)” value was 83%.
For `O=C(NCc1sc(C(c2ccc(Cl)cc2)c2c(Cl)cc(-n3ncc(=O)[nH]c3=O)cc2Cl)nc1-c1ccccc1)Nc1ccc(Cl)cc1` (racemic) [Comp 333], the “% inh. (percentage inhibition of IL-5 production)” value was 61%.
`O=c1cnn(-c2ccc(C(c3ccc(Cl)cc3)c3sc(-c4ccccc4)nc3-c3ccccc3)c(Cl)c2)c(=O)[nH]1` (racemic) [Compound 140] was tested, and the “% inh. (percentage inhibition of IL-5 production)” value was 45%.
`Cc1nnc(C(c2ccc(Cl)cc2)c2ccc(-n3ncc(=O)[nH]c3=O)cc2Cl)o1` (racemic) [Comp 102] was tested, and the “% inh. (percentage inhibition of IL-5 production)” value was 14%.
For `O=c1cnn(-c2cc(Cl)c(C(Nc3nc(-c4ccccc4)cs3)c3ccc(Cl)c(C(F)(F)F)c3)c(Cl)c2)c(=O)[nH]1` (racemic) [Compound 411], the “% inh. (percentage inhibition of IL-5 production)” value was 94%.
With `O=c1cnn(-c2cc(Cl)c(C(c3ccc(Cl)cc3)c3nc(-c4ccccc4Cl)cs3)c(Cl)c2)c(=O)[nH]1` (racemic) [Comp 32] the “% inh. (percentage inhibition of IL-5 production)” value was 90%.
With `O=c1cnn(-c2cc(Cl)c(C(c3ccc(Cl)cc3)c3nnc(-c4ccccc4)o3)c(Cl)c2)c(=O)[nH]1` (stereo not shown) [Compound 189, (A)-2-[3,5-dichloro-4-[(4-chlorophenyl)(5-phenyl-1,3,4-oxadizol-2-yl)methyl]phenyl]-1,2,4-triazine-3,5(2H,4H)-dione] the “% inh. (percentage inhibition of IL-5 production)” value was 82%.
In the case of `CCOC(=O)c1sc(C(c2ccc(Cl)cc2)c2c(Cl)cc(-n3ncc(=O)[nH]c3=O)cc2Cl)nc1-c1ccccc1F` (racemic) [Comp 285], the “% inh. (percentage inhibition of IL-5 production)” value is reported as 89%.
With `CC(c1ccc(Cl)c(Cl)c1)(c1nc(-c2ccccc2)c(-c2ccccc2)s1)c1c(Cl)cc(-n2ncc(=O)[nH]c2=O)cc1Cl` (racemic) [Comp 228] the “% inh. (percentage inhibition of IL-5 production)” value was 81%.
For `O=c1cnn(-c2cc(Cl)c(C(c3ccc(Cl)cc3)c3nc(-c4ccccc4)c(CO)s3)c(Cl)c2)c(=O)[nH]1` (racemic) [Comp 282], the “% inh. (percentage inhibition of IL-5 production)” value was 93%.
With `COCc1sc(C(c2ccc(Cl)cc2)c2c(Cl)cc(-n3ncc(=O)[nH]c3=O)cc2Cl)nc1-c1ccccc1` (racemic) [Comp 278] the “% inh. (percentage inhibition of IL-5 production)” value was 97%.
In the case of `O=c1cnn(-c2cc(Cl)c(C(c3ccc(Cl)cc3)c3nc(-c4cccc(Cl)c4)cs3)c(Cl)c2)c(=O)[nH]1` (racemic) [Comp 19], the “% inh. (percentage inhibition of IL-5 production)” value is reported as 83%.
With `Cn1c(C(c2ccc(Cl)cc2)c2c(Cl)cc(-n3ncc(=O)[nH]c3=O)cc2Cl)cnc1-c1ccccc1` (stereo not shown) [Comp 430] the “% inh. (percentage inhibition of IL-5 production)” value was 89%.
In the case of `CN(C)CCNC(c1ccc(Cl)cc1)(c1nc(-c2ccccc2)c(Cl)s1)c1ccc(-n2ncc(=O)[nH]c2=O)cc1Cl` (racemic) [Comp 266], the “% inh. (percentage inhibition of IL-5 production)” value is reported as 46%.
With `O=c1cnn(-c2cc(Cl)c(C(c3ccc(Cl)cc3)c3nnc(-c4cccc(F)c4)o3)c(Cl)c2)c(=O)[nH]1` (racemic) [Compound 160] the “% inh. (percentage inhibition of IL-5 production)” value was 91%.
With `CN(C)c1ccc(-c2nnc(C(c3ccc(Cl)cc3)c3c(Cl)cc(-n4ncc(=O)[nH]c4=O)cc3Cl)o2)cc1` (racemic) [Compound 180] the “% inh. (percentage inhibition of IL-5 production)” value was 54%.
For `[N-]=[N+]=Nc1ccc(-c2nnc(C(c3ccc(Cl)cc3)c3c(Cl)cc(-n4ncc(=O)[nH]c4=O)cc3Cl)o2)cc1` (racemic) [Compound 185], the “% inh. (percentage inhibition of IL-5 production)” value was 81%.
With `CCc1sc(C(C)(c2ccc(Cl)c(Cl)c2)c2c(Cl)cc(-n3ncc(=O)[nH]c3=O)cc2Cl)nc1-c1ccccc1` (racemic) [Comp 251] the “% inh. (percentage inhibition of IL-5 production)” value was 90%.
With `Cc1nc(C(c2ccc(Cl)cc2)c2c(Cl)cc(-n3ncc(=O)[nH]c3=O)cc2Cl)sc1C` (racemic) [Comp 16] the “% inh. (percentage inhibition of IL-5 production)” value was 89%.
`NS(=O)(=O)Nc1cccc(-c2nnc(C(c3ccc(Cl)cc3)c3c(Cl)cc(-n4ncc(=O)[nH]c4=O)cc3Cl)o2)c1.O` (racemic) [Compound 221] was tested, and the “% inh. (percentage inhibition of IL-5 production)” value was −2%.
With `Cc1oc(C(c2ccc(Cl)cc2)c2c(Cl)cc(-n3ncc(=O)[nH]c3=O)cc2Cl)nc1-c1ccccc1` (stereo not shown) [Comp 426] the “% inh. (percentage inhibition of IL-5 production)” value was 92%.
With `O=c1cnn(-c2cc(Cl)c(C(c3ccc(Cl)cc3)c3nnc(-c4cccnc4)o3)c(Cl)c2)c(=O)[nH]1` (racemic) [Compound 201] the “% inh. (percentage inhibition of IL-5 production)” value was 87%.
For `Cc1sc(C(c2ccc(Cl)cc2)c2c(Cl)cc(-n3ncc(=O)[nH]c3=O)cc2Cl)nc1-c1cccc(F)c1` (racemic) [Comp 258], the “% inh. (percentage inhibition of IL-5 production)” value was 98%.
In the case of `CCOC(=O)c1csc(C(c2ccc(Cl)cc2)c2c(Cl)cc(-n3ncc(=O)[nH]c3=O)cc2Cl)n1` (racemic) [Comp 27], the “% inh. (percentage inhibition of IL-5 production)” value is reported as 64%.
In the case of `CCOC(=O)c1sc(C(c2ccc(Cl)cc2)c2c(Cl)cc(-n3ncc(=O)[nH]c3=O)cc2Cl)nc1-c1ccccc1` (racemic) [Comp 29], the “% inh. (percentage inhibition of IL-5 production)” value is reported as 95%.
In the case of `O=c1cnn(-c2cc(Cl)c(C(Sc3nc(-c4ccc(F)cc4F)cs3)c3ccc(Cl)c(C(F)(F)F)c3)c(Cl)c2)c(=O)[nH]1` (stereo not shown) [Compound 397], the “% inh. (percentage inhibition of IL-5 production)” value is reported as 83%.
With `O=c1cnn(-c2ccc(C(c3ccc(Cl)cc3)n3cncn3)c(Cl)c2)c(=O)[nH]1` (racemic) [Comp 97] the “% inh. (percentage inhibition of IL-5 production)” value was 26%.
With `Cc1cccc(-c2nnc(C(c3ccc(Cl)cc3)c3c(Cl)cc(-n4ncc(=O)[nH]c4=O)cc3Cl)o2)c1` (racemic) [Compound 178] the “% inh. (percentage inhibition of IL-5 production)” value was 78%.
For `Nc1ccc(SC(c2ccc(Cl)c(C(F)(F)F)c2)c2c(Cl)cc(-n3ncc(=O)[nH]c3=O)cc2Cl)cc1` (stereo not shown) [Compound 393], the “% inh. (percentage inhibition of IL-5 production)” value was 93%.
For `CCOC(=O)Cc1sc(C(c2ccc(Cl)cc2)c2c(Cl)cc(-n3ncc(=O)[nH]c3=O)cc2Cl)nc1-c1ccccc1Cl` (racemic) [Comp 293], the “% inh. (percentage inhibition of IL-5 production)” value was 59%.
For `CS(=O)(=O)Nc1cccc(-c2nnc(C(c3ccc(Cl)cc3)c3c(Cl)cc(-n4ncc(=O)[nH]c4=O)cc3Cl)o2)c1` (racemic) [Compound 208], the “% inh. (percentage inhibition of IL-5 production)” value was 48%.
For `O=c1cnn(-c2ccc(C(SCc3ccco3)c3ccc(Cl)cc3)c(Cl)c2)c(=O)[nH]1` (racemic) [Compound 64], the “% inh. (percentage inhibition of IL-5 production)” value was 64%.
In the case of `O=c1cnn(-c2cc(Cl)c(C(Sc3nc4ccccc4[nH]3)c3ccc(Cl)c(C(F)(F)F)c3)c(Cl)c2)c(=O)[nH]1` (stereo not shown) [Compound 396], the “% inh. (percentage inhibition of IL-5 production)” value is reported as 28%.
`COCCNCc1sc(C(c2ccc(Cl)cc2)c2c(Cl)cc(-n3ncc(=O)[nH]c3=O)cc2Cl)nc1-c1ccccc1` (racemic) [Comp 316] was tested, and the “% inh. (percentage inhibition of IL-5 production)” value was 85%.
In the case of `COc1ccccc1-c1csc(C(c2ccc(Cl)cc2)c2c(Cl)cc(-n3ncc(=O)[nH]c3=O)cc2Cl)n1` (racemic) [Comp 263], the “% inh. (percentage inhibition of IL-5 production)” value is reported as 92%.
`CC(c1ccc(Cl)cc1)(c1nnc(-c2ccccc2)o1)c1c(Cl)cc(-n2ncc(=O)[nH]c2=O)cc1Cl` (racemic) [Compound 206] was tested, and the “% inh. (percentage inhibition of IL-5 production)” value was 82%.

Same assay, conditions: test dose 1×10^−6 M, 48 hours, read-out: % inh. (percentage inhibition of IL-5 production)
`CCNC(CSC(c1ccc(Cl)cc1)c1ccc(-n2ncc(=O)[nH]c2=O)cc1Cl)C(=O)O` (racemic) [Compound 95, (±)-ethyl α-[[[(4-chlorophenyl)[2-chloro-4-(4,5-dihydro-3,5-dioxo-1,2,4-triazin-2(3H)-yl)phenyl]methyl]thio]methyl]glycine] gave an inhibition at 1 µM of 17%.
Work on `Cc1nc(C(c2ccc(Cl)cc2)c2ccc(-n3ncc(=O)[nH]c3=O)cc2Cl)no1` (racemic) [Compound 126, (±)-2-[3-chloro-4-[(4-chlorophenyl)(5-methyl-1,2,4-oxadiazol-3-yl)methyl]phenyl]-1,2,4-triazine-3,5(2H,4H)-dione] yielded an inhibition at 1 µM of 40%.
Molecule `O=c1cnn(-c2ccc(C(c3ccc(Cl)cc3)c3nc4ccccc4s3)c(Cl)c2)c(=O)[nH]1` (racemic) [Compound 130, (±)-2-[4-[2-benzothiazolyl-(4-chlorophenyl)methyl]-3-chlorophenyl]-1,2,4-triazine-3,5(2H,4H)-dione] has an inhibition at 1 µM of 70%.
